Results on 79 compounds are retold here after publication PMC12040169 (PLOS Biology, 2025).

The first series is described as follows: in vitro. To be noted: human, hela cells, % viability.
As for `O=C(Nc1ccc(NC(=O)Nc2cccc(Cl)c2)cc1)Nc1cccc(Cl)c1` [CBK267623], the viability at 28.5 h, 10 µM is 93.9%.

For `Cc1cc(C)c(S(=O)(=O)NC(C)C)c(C)c1-n1cnnn1` [CBK270197], the viability at 28.5 h, 10 µM is 96.5%.

On to `O=C(O)CCSc1nc(-c2ccccc2)c(-c2ccccc2)n1-c1ccccc1` [CBK264837], for which the viability at 28.5 h, 10 µM worked out at 113%.

Turning to `O=C(CCc1ccccc1)NC(c1cccc([N+](=O)[O-])c1)c1c(O)ccc2ccccc12` (stereo not shown) [CBK265278], the viability at 28.5 h, 10 µM came out at 109%.

In the case of `COc1cccc(NC(=O)CSCc2n[nH]c(=O)[nH]2)c1` [CBK266058], the viability at 28.5 h, 10 µM was 95.8%.

For the compound `Fc1ccc(CCN2CCC(c3nc(-c4cccnc4)no3)CC2)cc1` [CBK051464], the viability at 28.5 h, 10 µM was found to be 118%.

Take `O=C(c1ccccn1)N1CCN(CCc2ccccc2)CC1` [CBK200201]: the viability at 28.5 h, 10 µM worked out at 99.1%.

On to `O=C(NCC(c1ccccc1)c1c[nH]c2ccccc12)Nc1ccc(Cl)cc1` (stereo not shown) [CBK269147], for which the viability at 28.5 h, 10 µM came to 91.9%.

In the case of `OC1(c2cccnc2F)CCN(Cc2c(F)cccc2F)CC1` [CBK283149], the viability at 28.5 h, 10 µM is 107%.

Turning to `O=C(/C=C/c1cccc([N+](=O)[O-])c1)Nc1ccc(O)cc1C(=O)O` [CBK263615], the viability at 28.5 h, 10 µM turned out to be 87.3%.

`Cc1cc(=O)n2c(c1C#N)SCC2` [CBK027807]: the viability at 28.5 h, 10 µM amounted to 102%.

Consider `O=C(c1ccccn1)N(CCc1ccccc1)c1nc2ccccc2s1` [CBK295151], for which the viability at 28.5 h, 10 µM came out at 97.5%.

For the compound `CCNS(=O)(=O)c1ccc(NC(=O)Nc2cc(C)ccc2OC)cc1` [CBK266850], the viability at 28.5 h, 10 µM is 106%.

In the case of `Cc1cc2ccccc2c(=O)n1CCO` [CBK015621], the viability at 28.5 h, 10 µM was 102%.

`Cc1cc(C)n(C2CCN(Cc3nc4ccccc4n3C)CC2)n1` [CBK281621]: the viability at 28.5 h, 10 µM worked out at 84.3%.

Regarding `O=C(O)c1ccc(N2C(=O)C3C4C=CC(C4=C(c4ccccc4)c4ccccc4)C3C2=O)cc1` (stereo not shown) [CBK263030], the viability at 28.5 h, 10 µM was found to be 104%.

In the case of `O=C(c1c[nH]c2ccccc12)N1CCc2ccccc2C1` [CBK200331], the viability at 28.5 h, 10 µM stood at 113%.

Regarding `OCCCNc1nccnc1-c1ccccc1Cl` [CBK038092], the viability at 28.5 h, 10 µM is 81.6%.

In the case of `COc1ccc2nc(NC(=O)c3cnc(-c4ccc(Cl)cc4)c(-c4cccnc4)c3)sc2c1` [CBK037576], the viability at 28.5 h, 10 µM was determined as 105%.

`COc1ccc(OC)c(C(C)NC(=O)C2CCN(CCc3c[nH]c4ccccc34)CC2)c1` (stereo not shown) [CBK148763]: the viability at 28.5 h, 10 µM was 99.2%.

Consider `CCOC(=O)c1sc2nccc(N(C)C)c2c1-n1cccc1` [CBK115381], for which the viability at 28.5 h, 10 µM worked out at 93.4%.

In the case of `O=c1[nH]c2ccccc2n1CCCN1CCC2(CC1)CN(CCO)c1ccccc12` [CBK137133], the viability at 28.5 h, 10 µM turned out to be 97.4%.

Regarding `Cc1cc2ncc3c(n2n1)CC1CCC3N1C(=O)CCc1ccco1` (stereo not shown) [CBK284380], the viability at 28.5 h, 10 µM worked out at 78.2%.

Consider `COc1cc(NC(=O)NCC2CCN(CCOc3c(OC)cccc3OC)CC2)cc(OC)c1` [CBK051514], for which the viability at 28.5 h, 10 µM worked out at 89.1%.

Regarding `CNS(=O)(=O)c1ccc(NC(=O)c2cc(-c3ccc4c(c3)OCO4)nc3ccccc23)cc1` [CBK267735], the viability at 28.5 h, 10 µM stood at 99%.

For the compound `CCCNc1cc(-c2cccc(Cl)c2)nc2ccnn12` [CBK037747], the viability at 28.5 h, 10 µM is 112%.

As for `Cc1cc(C)cc(NC(=O)C2C3C=CC(O3)C2C(=O)O)c1` (stereo not shown) [CBK262642], the viability at 28.5 h, 10 µM stood at 95.3%.

As for `COc1ccc(OC(C)C(=O)Nc2ccccc2-c2ccccc2)cc1` (stereo not shown) [CBK266661], the viability at 28.5 h, 10 µM worked out at 94.2%.

On to `CCCCNc1nnc(-c2nn(C)cc2Cl)s1` [CBK288021], for which the viability at 28.5 h, 10 µM worked out at 79.4%.

On to `OC(CNCc1cccs1)c1ccccc1` (stereo not shown) [CBK057092], for which the viability at 28.5 h, 10 µM stood at 90.8%.

On to `CC(C)Oc1cccc(C(=O)Nc2ccc(N3CCN(C)CC3)cc2)c1` [CBK266090], for which the viability at 28.5 h, 10 µM worked out at 90.5%.

`CCOc1ccsc1C(=O)N1CCN(CC)CC1` [CBK200250]: the viability at 28.5 h, 10 µM was found to be 125%.

For `CC1CCc2c(sc3ncnc(NCCCN4CCCCCC4=O)c23)C1` (stereo not shown) [CBK305947], the viability at 28.5 h, 10 µM is 85.4%.

With `COc1ccc(C(=O)N2CCC3(CCCN(C(=O)Cc4ccc(Cl)c(Cl)c4)C3)C2)cc1OC` (stereo not shown) [CBK131654], the viability at 28.5 h, 10 µM is 98.1%.

As for `Cn1c(N2CC[C@H](O)C2)nc2cc(C(=O)NCC3CC3)ccc21` [CBK307164], the viability at 28.5 h, 10 µM came out at 92.1%.

With `O=C1CC(N2CCN(C/C=C/c3ccccc3)CC2)C(=O)N1CCc1ccccc1` (stereo not shown) [CBK262082], the viability at 28.5 h, 10 µM was determined as 83.6%.

Turning to `O=C(Cc1ccccc1)Nc1nnc(-c2ccccc2)o1` [CBK287597], the viability at 28.5 h, 10 µM worked out at 95.4%.

In the case of `O=C1COc2ccccc2C/C=C/CC2(CCNCC2)C(=O)NCCN1` [CBK291996], the viability at 28.5 h, 10 µM is 105%.

On to `Cc1cccc(-n2c(CCc3ccccc3)nnc2SCC(=O)c2ccccc2)c1` [CBK266369], for which the viability at 28.5 h, 10 µM is 94%.

In the case of `O=C(O)COc1ccc(Br)cc1/C=N/Nc1ccccn1` [CBK262369], the viability at 28.5 h, 10 µM was 102%.

Consider `Cc1n[n+]2c(C(=O)Nc3ccc(S(=O)(=O)Nc4nccs4)cc3)c(C)[n-]n2c1[N+](=O)[O-]` [CBK293983], for which the viability at 28.5 h, 10 µM turned out to be 83.2%.

Regarding `O=C(c1cncnc1)N1CCC2(CCN(C(=O)c3ccoc3)C2)C1` (stereo not shown) [CBK131755], the viability at 28.5 h, 10 µM came to 86.2%.

Take `CCOc1cc(-c2cc(C(=O)O)c3ccccc3n2)ccc1O` [CBK266848]: the viability at 28.5 h, 10 µM was 103%.

Turning to `COCCn1c(SCc2c(C)nc3ccccn23)nc(C)c1C` [CBK305212], the viability at 28.5 h, 10 µM turned out to be 80.1%.

For `O=C(CCC(F)(F)F)NCc1csc(-c2ccccc2)n1` [CBK092342], the viability at 28.5 h, 10 µM was determined as 91%.

As to `Cc1ccc(Cn2nc(NC(=O)c3cc(C)on3)c3ccccc32)cc1` [CBK048215], the viability at 28.5 h, 10 µM came out at 90.8%.

Regarding `COc1ccc(CNC(=O)Cn2nnc(-c3ccc(NC(=O)C4CCCCC4)cc3)n2)cc1` [CBK135876], the viability at 28.5 h, 10 µM came to 101%.

As for `COc1ccccc1CN(C1CCNCC1)S(=O)(=O)c1c(Cl)cccc1Cl` [CBK160807T], the viability at 28.5 h, 10 µM came to 89.2%.

Turning to `O=c1cc(O)c2ccccc2n1Cc1ccccc1Cl` [CBK291255], the viability at 28.5 h, 10 µM came to 93.4%.

On to `O=C(O)c1nc(/N=C/c2ccc(C#Cc3ccccc3)cc2)n[nH]1` [CBK261219], for which the viability at 28.5 h, 10 µM was 90.3%.

For the compound `CC(C)c1nc2c(c(=O)c3ccccc3n2C)c(=O)n1-c1ccccc1` [CBK287947], the viability at 28.5 h, 10 µM was 97.6%.

`CC1CCN(Cc2ccc(-c3cn(CC(=O)NCc4ccc(Br)cc4)nn3)cc2)CC1` [CBK164709]: the viability at 28.5 h, 10 µM was 93%.

As to `O=C(CS(=O)(=O)c1ccccc1)Nc1cccc2nsnc12` [CBK267949], the viability at 28.5 h, 10 µM stood at 97.4%.

For the compound `COc1ccc(CC(=O)N2CCCC2c2nc3ccccc3[nH]2)cc1` (stereo not shown) [CBK283666], the viability at 28.5 h, 10 µM amounted to 93.4%.

On to `O=C1c2ccccc2NC(c2cnc3ccccc3n2)N1O` (stereo not shown) [CBK288357], for which the viability at 28.5 h, 10 µM was determined as 84.7%.

With `Cc1csc2c(N3CCC(NCCCc4cnn(C)c4)CC3)ncnc12` [CBK307291], the viability at 28.5 h, 10 µM was 98.2%.

As to `O=C(COc1ccc2c(c1)OCO2)N1CCN(Cc2ccccc2)CC1` [CBK269977], the viability at 28.5 h, 10 µM is 84.8%.

As for `Cc1ccc2c(C)c(C(=O)Nc3ccc(S(N)(=O)=O)cc3)oc2c1` [CBK267661], the viability at 28.5 h, 10 µM stood at 110%.

For `COc1ccc(CN2CCCN(c3ccnc(OCCN4CCOCC4)n3)CC2)cc1` [CBK083800], the viability at 28.5 h, 10 µM was found to be 99.2%.

For the compound `O=C(Nc1ccccc1N1CCN(C(=O)c2ccc(Cl)cc2)CC1)c1ccc(-c2cc3ccccc3oc2=O)cc1` [CBK267280], the viability at 28.5 h, 10 µM is 92.3%.

Turning to `O=c1[nH]c2ncc(-c3ccsc3)nc2n1-c1ccc2[nH]ccc2c1` [CBK064650], the viability at 28.5 h, 10 µM amounted to 108%.

Regarding `Cc1cc(NCc2ccc(C(C)C)cc2)c2ccccc2n1` [CBK122786], the viability at 28.5 h, 10 µM turned out to be 91.7%.

Regarding `Cc1ccc(S(=O)(=O)NCc2ccccc2)c(C)c1NS(C)(=O)=O` [CBK268555], the viability at 28.5 h, 10 µM worked out at 90.2%.

Regarding `CCOC(=O)Cc1cc(O)nc(NC(=N)Nc2ccc(C)cc2C)n1` [CBK264986], the viability at 28.5 h, 10 µM was found to be 104%.

`O=[N+]([O-])c1ccc(O)c(C(C#Cc2ccccc2)N2CCOCC2)c1` (stereo not shown) [CBK262741]: the viability at 28.5 h, 10 µM stood at 93.2%.

As for `COC(=O)c1cc(C)sc1NC(=S)Nc1cnn(Cc2cccc3ccccc23)c1` [CBK267098], the viability at 28.5 h, 10 µM turned out to be 101%.

As to `CC(C)(C)C(=O)NCc1ccc(C(=O)CSc2n[nH]c(=O)n2C2CC2)s1` [CBK295653], the viability at 28.5 h, 10 µM is 111%.

As to `O=C(N[C@@H]1COCC[C@@H]1OCC1CC1)c1cccc2c1NCCC2` [CBK307227], the viability at 28.5 h, 10 µM stood at 102%.

As for `Cc1nn(Cc2nnc(SCC(=O)C(C)(C)C)o2)c(C)c1Br` [CBK005646], the viability at 28.5 h, 10 µM was determined as 92.1%.

With `COC(=O)c1nc(Cl)c(Cl)nc1NS(=O)(=O)c1cccc(Cl)c1C` [CBK004709], the viability at 28.5 h, 10 µM is 91.8%.

As to `CC(=O)NCCc1nc2cc(NC(=O)c3ccc([N+](=O)[O-])cc3)ccc2n1C` [CBK268368], the viability at 28.5 h, 10 µM worked out at 117%.

As to `COCC(=O)NC(Cc1cccs1)c1nc(C)cs1` (stereo not shown) [CBK285004], the viability at 28.5 h, 10 µM worked out at 87.3%.

On to `CC(=O)c1cc(C(=O)NC(c2ccccc2)c2cccnc2)cs1` (stereo not shown) [CBK282514], for which the viability at 28.5 h, 10 µM is 125%.

In the case of `O=C(Nc1cc(N2CCCS2(=O)=O)ccc1Cl)c1cc[nH]n1` [CBK306249], the viability at 28.5 h, 10 µM worked out at 83.1%.

Turning to `O=C(CSc1nnc(-c2ccccc2)[nH]1)c1cccc([N+](=O)[O-])c1` [CBK263287], the viability at 28.5 h, 10 µM is 91%.

Regarding `Clc1nc2ccccc2nc1N1CCNCC1` [CBK003880], the viability at 28.5 h, 10 µM is 96%.

Consider `Oc1cccc(OCCOc2nc3cc(Cl)c(Cl)cc3nc2N2CCCC2)c1` [CBK115778], for which the viability at 28.5 h, 10 µM came to 100%.

The same series, now with this note: human, hela cells, % viability, bulk resorufin, single well.
As for `CCc1ccc(N2C(=O)/C(=C/c3ccc(OCC(=O)O)c(Br)c3)C(=O)NC2=S)cc1` [CBK263325], the viability at 28.5 h, 10 µM worked out at 96.4%.

Consider `CCOC(=O)C1(c2ccccc2)CCN(C(=O)c2ccc3ncccc3c2)CC1` [CBK132206], for which the viability at 28.5 h, 10 µM was 107%.
